Laboratory results from publication PMC9894594, “Progressive Acceleration of Insulin Exposure Over 7 Days of Infusion Set Wear” (Diabetes Technology & Therapeutics, 2023).

How the values were obtained:
[1] = Euglycemic clamp pharmacodynamics (glucose infusion rate) after insulin lispro pump bolus; type: in vivo, human (participants with type 1 diabetes mellitus); design: t50% (GIR, early) (time to reach 50% GIRmax before peak) / t50% (GIR, late) (time to reach 50% GIRmax after peak): unit: min; details: 0.15 U/kg SC bolus by pump, euglycemic clamp 300 min, median (25th–75th)
Source text: (§1) We performed a prospectively enrolled randomized sequence two-way crossover study of the investigational CBX (Capillary Biomedical, Inc., Irvine, CA) and a commercial angled Teflon (MiniMed™ Silhouette™; Medtronic Diabetes Care, Northridge, CA; indicated for 3-day use) IIS for two weeklong home use periods with four in-patient euglycemic clamp sessions during each of the 7-day periods. Between the two periods, there was a wash out of 14 days (Supplementary Fig. S1).
(§2) Euglycemic clamp experiments were performed at AMCR Institute (in Escondido, CA.) on days 0, 3, 5, and 7 in each treatment period (eight clamps per participant). Participants were admitted to AMCR the evening before the clamp study and glucose was stabilized overnight with intravenous (IV) insulin or glucose as needed. Personal pumps were set to 0.1 U/h overnight and throughout the clamp experiment. Once glucose was stable (95 ± 15 mg/dL) in the morning, IV insulin was stopped 20 min before administering a bolus of 0.15 U/kg of insulin lispro (Eli Lilly, Indianapolis, IN) by pump. Glucose was clamped at 95 ± 15 mg/dL for 300 min or terminated early if runaway hyperglycemia occurred.
(§3) PK parameters (area under the insulin concentration curve [AUC] over the first 60 or 300 min, respectively; time to maximum insulin concentration [tmax]; maximum insulin concentration [Cmax]; time to half-maximum insulin concentration, early and late [t50%], and mean residence time [MRT]) were tested for treatment effects. […] Estimated means were then back transformed and the ratio between treatments/days (equality means a ratio of 1) tested for significance using mixed model for repeated measures (two-sided, α = 0.05). For simplicity reasons, all data are presented as median (25th–75th percentiles) or mean ± standard deviation.

[2] = Insulin lispro pharmacokinetics after pump bolus during euglycemic clamp over 7 days of infusion set wear; type: in vivo, human (participants with type 1 diabetes mellitus); details: CBX group
Source text: as §1, §2
Per participant and clamp, 30 plasma samples were collected in regular intervals and stored at −70°C. Samples were analyzed elsewhere (Northern Lights Mercodia Lispro ELISA, Mercodia AB, Uppsala, Sweden; lowest limit of quantification (LLOQ) = 1.0 mU/L, 94% accuracy[7]). Owing to the small sample size and the intrinsically greater variability in pharmacodynamic measures, the PK results are the only results detailed in this report.
as §3

[3] = day 0 of IIS wear, CBX IIS, n = 6
[4] = day 0 of IIS wear, Control IIS, n = 6
[5] = day 3 of IIS wear, CBX IIS, n = 6
[6] = day 3 of IIS wear, Control IIS, n = 6
[7] = day 5 of IIS wear, CBX IIS, n = 6
[8] = day 5 of IIS wear, Control IIS, n = 6
[9] = day 7 of IIS wear, CBX IIS, n = 5
[10] = day 7 of IIS wear, Control IIS, n = 5

insulin lispro
AUC0–300(GIR) (area under the GIR curve from 0 to 300 min) [1, 3]: 1205 (642.1–1219) mg/kg
GIRmax (maximum glucose infusion rate) [1, 3]: 8.4 (4.5–9.1) mg/(kg·min)
Onset of action [1, 3]: 28.9 (21.4–39.0) min
t50% (GIR, early) (time to reach 50% GIRmax before peak) [1, 3]: 48.7 (25.7–63.5)
t50% (GIR, late) (time to reach 50% GIRmax after peak) [1, 3]: 187.4 (160.4–234.3)
tmax(GIR) (time to reach GIRmax) [1, 3]: 140.0 (80.0–170.0) min
AUC0–300(GIR) (area under the GIR curve from 0 to 300 min) [1, 4]: 1330 (790.6–1539) mg/kg
GIRmax (maximum glucose infusion rate) [1, 4]: 10.2 (7.7–11.7) mg/(kg·min)
Onset of action [1, 4]: 76.1 (56.6–106.4) min
t50% (GIR, early) (time to reach 50% GIRmax before peak) [1, 4]: 67.6 (43.0–93.5)
t50% (GIR, late) (time to reach 50% GIRmax after peak) [1, 4]: 182.6 (164.3–247.3)
tmax(GIR) (time to reach GIRmax) [1, 4]: 145.0 (90.0–190.0) min
AUC0–300(GIR) (area under the GIR curve from 0 to 300 min) [1, 5]: 719.6 (652.3–864.3) mg/kg
GIRmax (maximum glucose infusion rate) [1, 5]: 7.41 (5.7–9.5) mg/(kg·min)
Onset of action [1, 5]: 28.2 (12.1–34.0) min
t50% (GIR, early) (time to reach 50% GIRmax before peak) [1, 5]: 49.0 (37.7–95.0)
t50% (GIR, late) (time to reach 50% GIRmax after peak) [1, 5]: 157.6 (97.5–179.0)
tmax(GIR) (time to reach GIRmax) [1, 5]: 65.00 (60.0–120.0) min
AUC0–300(GIR) (area under the GIR curve from 0 to 300 min) [1, 6]: 743.1 (585.5–1268) mg/kg
GIRmax (maximum glucose infusion rate) [1, 6]: 5.2 (5.0–13.5) mg/(kg·min)
Onset of action [1, 6]: 35.4 (29.0–41.4) min
t50% (GIR, early) (time to reach 50% GIRmax before peak) [1, 6]: 51.3 (44.9–55.6)
t50% (GIR, late) (time to reach 50% GIRmax after peak) [1, 6]: 147.8 (88.3–177.7)
tmax(GIR) (time to reach GIRmax) [1, 6]: 82.0 (60.0–110.0) min
AUC0–300(GIR) (area under the GIR curve from 0 to 300 min) [1, 7]: 663.5 (609.8–1332) mg/kg
GIRmax (maximum glucose infusion rate) [1, 7]: 8.1 (6.5–10.9) mg/(kg·min)
Onset of action [1, 7]: 21.1 (18.4–23.8) min
t50% (GIR, early) (time to reach 50% GIRmax before peak) [1, 7]: 33.3 (28.7–37.0)
t50% (GIR, late) (time to reach 50% GIRmax after peak) [1, 7]: 92.6 (77.1–147.0)
tmax(GIR) (time to reach GIRmax) [1, 7]: 62.5 (50.0–70.0) min
AUC0–300(GIR) (area under the GIR curve from 0 to 300 min) [1, 8]: 695.2 (585.4–1395) mg/kg
GIRmax (maximum glucose infusion rate) [1, 8]: 9.1 (7.3–10.8) mg/(kg·min)
Onset of action [1, 8]: 20.0 (16.4–23.0) min
t50% (GIR, early) (time to reach 50% GIRmax before peak) [1, 8]: 38.8 (30.6–39.1)
t50% (GIR, late) (time to reach 50% GIRmax after peak) [1, 8]: 106.8 (95.4–140.2)
tmax(GIR) (time to reach GIRmax) [1, 8]: 59.0 (55.0–60.0) min
AUC0–300(GIR) (area under the GIR curve from 0 to 300 min) [1, 9]: 883.0 (380.6–908.4) mg/kg
GIRmax (maximum glucose infusion rate) [1, 9]: 10.1 (4.9–11.3) mg/(kg·min)
Onset of action [1, 9]: 18.8 (16.2–27.0) min
t50% (GIR, early) (time to reach 50% GIRmax before peak) [1, 9]: 32.2 (28.0–36.0)
t50% (GIR, late) (time to reach 50% GIRmax after peak) [1, 9]: 107.5 (105.9–117.8)
tmax(GIR) (time to reach GIRmax) [1, 9]: 55.0 (50.0–55.0) min
AUC0–300(GIR) (area under the GIR curve from 0 to 300 min) [1, 10]: 687.7 (386.7–1039) mg/kg
GIRmax (maximum glucose infusion rate) [1, 10]: 9.2 (6.9–11.5) mg/(kg·min)
Onset of action [1, 10]: 27.5 (14.6–32.0) min
t50% (GIR, early) (time to reach 50% GIRmax before peak) [1, 10]: 48.1 (23.2–48.1)
t50% (GIR, late) (time to reach 50% GIRmax after peak) [1, 10]: 96.7 (87.1–109.5)
tmax(GIR) (time to reach GIRmax) [1, 10]: 70.0 (60.0–70.0) min
acceleration of median tmax by day 7 vs day 0 [2]: 61%
decrease of median MRT from day 0 to day 7 [2]: 42%
increase of median early exposure (AUC0–60) by day 7 vs day 0 [2]: 59%
decline of median total insulin exposure (AUC0–300) from days 0 to 7 ([2]; n.s.): 22%
